Consider 16 compounds from patent US20200172483A1, “HETEROCYCLIC SMALL MOLECULE MODULATORS OF HUMAN STING” (Curadev Pharma Limited, priority 2017, published 2020).

SMILES strings stand for the structures. Like-named read-outs stand apart in the source and are kept apart here.

Test [1] addresses T1, WT/R232 STING protein (Homo sapiens, UniProt Q86WV6, H232R).
T1 construct: host or cells: HEK293T
Kind of test: Luciferase reporter assay in HEK293T-hSTING-Luciferase cells (R232). It is filed as cell-based. Particulars: 20 hr stimulation, EC50 range. An outline of the steps: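 Readout is fold-induction over baseline of secreted luciferase, measured by luminescence after 20 hr compound stimulation. Cells: clonally selected HEK293T stably carrying hSTING (R232) and a luciferase reporter under five tandem ISREs fused to an ISG54 minimal promoter.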
For orientation: In a reporter assay the amount or activity of a reporter protein is the signal.

The target of test [2] is T2, hSTING (H232) (Homo sapiens, UniProt Q86WV6).
T2 construct: host or cells: HEK293T
T2 sequence (Q86WV6 whole entry): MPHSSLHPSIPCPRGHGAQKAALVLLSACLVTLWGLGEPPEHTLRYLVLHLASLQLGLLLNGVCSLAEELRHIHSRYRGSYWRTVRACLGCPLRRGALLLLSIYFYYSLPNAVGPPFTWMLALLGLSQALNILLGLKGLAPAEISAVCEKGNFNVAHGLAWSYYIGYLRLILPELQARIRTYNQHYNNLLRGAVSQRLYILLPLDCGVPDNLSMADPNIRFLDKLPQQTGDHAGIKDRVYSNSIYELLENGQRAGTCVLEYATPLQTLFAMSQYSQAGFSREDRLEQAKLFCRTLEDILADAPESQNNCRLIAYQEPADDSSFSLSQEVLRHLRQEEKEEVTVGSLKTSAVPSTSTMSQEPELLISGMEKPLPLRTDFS
The experiment in a line: Luciferase reporter assay in HEK293T-hSTING-Luciferase cells (H232/REF polymorph). It is filed as cell-based. Particulars: EC50 range. An excerpt: (§1) • a) Stable STING expressing cells—Stable HEK293T STING-expressing cell lines were generated using plasmids purchased from Invivogen, CA, USA, that contain STING cDNA cloned into the pUNO-1 vector under hEF1-HTLV promoter and containing the Blasticidin selection cassette. The plasmids hSTING (R232), hSTING (H232), hSTING (HAQ) were directly procured from Invivogen while hSTING (AQ) and hSTING (Q) were derived from hSTING (HAQ) and hSTING (R232) plasmids respectively by using a PCR based site directed mutagenesis method. These vectors were individually transfected into HEK293T cells using Lipofectamine (Invitrogen) and transfected cells were selected under Blasticidin selection. These transfected cells were further subjected to clonal selection using the limiting dilution method to obtain clonally pure populations of HEK cells transfected with each of the above mentioned human STING variants. Only those clones were selected in which ligand independent activation of STING was minimal. • b) Stable Luciferase reporter gene expressing cells—Stable HEK293T Luciferase reporter gene expressing cell lines were generated using pCDNA4 plasmids under an IRF-inducible promoter. This promoter is comprised of five tandem interferon-stimulated response elements (ISRE) fused to an ISG54 minimal promoter. This vector was transfected into HEK293T cells using Lipofectamine (Invitrogen) and transfected cells were selected under Zeocin selection. These transfected cells were further subjected to clonal selection using the limiting dilution method to obtain clonally pure populations of HEK cells transfected the Luciferase reporter construct. Only those clones were selected in which ligand independent induction of luciferase was minimal.
(§2) 5×10^5 clonally selected HEK293T-hSTING-Luciferase cells were seeded in 384-well plates in growth medium and stimulated with novel compounds. After 20 hr of stimulation supernatant were removed and secretary reporter gene activity were measured using the Quanti-Luc detection system (Invivogen) on a Spectramax i3X luminometer.
(§3) The 5 major polymorphisms of human STING are shown in FIG. 1, with their prevalence in human populations indicated.

Test [3] addresses T3, hSTING (HAQ) (Homo sapiens, UniProt Q86WV6, G230A/H232R/R293Q/R71H).
T3 construct: host or cells: HEK293T
Kind of test: Luciferase reporter assay in HEK293T-hSTING-Luciferase cells (HAQ polymorph). It counts as cell-based. The settings on record: EC50 range.
From the text: as §1, §2, §3

The test system of test [4] is IRF pathway. Kind of test: Reporter gene expression assay for IRF axis in THP1-Dual cells (secreted Lucia luciferase). The settings on record: 20 hr stimulation, QUANTI-Luc, EC50 range, read-out: THP-IRF activity. It is filed as cell-based, human. How it is done:
(§4) THP1-Dual™ cells (Invivogen) were derived from the human THP-1 monocyte cell line by stable integration of two inducible reporter constructs. As a result, THP1-Dual™ cells allow the simultaneous study of the NF-κB pathway, by monitoring the activity of secreted SEAP, and the IRF pathway, by assessing the activity of a secreted luciferase (Lucia). […] THP1-Dual™ cells were seeded in 384-well plates in growth medium and stimulated with novel compounds. After 20 hr of stimulation supernatant were removed and reporter proteins were readily measured in the cell culture supernatant using QUANTI-Blue™ (Invivogen), a SEAP detection reagent, and QUANTI-Luc™ (Invivogen), a luciferase detection reagent on a Spectramax i3X luminometer. EC50 value ranges for exemplary compounds tested in the above assay are given.

For test [5], the system named is NF-κB pathway. Kind of test: Reporter gene expression assay for NFκB axis in THP1-Dual cells (secreted SEAP). Particulars: 20 hr stimulation, QUANTI-Blue SEAP, EC50 range, read-out: THP-NFKB activity. It is filed as cell-based, human. The procedure: as §4

T1 sequence (Q86WV6 whole entry H232R): as the sequence (Q86WV6 whole entry) above, with H232R counted along it
T3 sequence (Q86WV6 whole entry R71H/G230A/H232R/R293Q): as the sequence (Q86WV6 whole entry) above, with R71H, G230A, H232R, R293Q counted along it

As for `CC1(Cl)C(=O)N(Cc2c(F)cccc2Cl)c2cc(C(=O)NCc3c(F)cc(F)cc3F)ccc21` (centres unmarked) [Example 146, 3-chloro-1(2-chloro-6-fluorobenzyl)-3-methyl-2-oxo-N-(2,4,6-trifluorobenzyl)indoline-6-carboxamide], the EC50 in test [1] is no more than 1 µM; in test [2] it was 1 to 10 µM; in test [3] it was 1 to 10 µM; in test [4] (Homo sapiens, THP1-Dual, 20 h), greater than 10 µM; in test [5] (Homo sapiens, THP1-Dual, 20 h) it was 1 to 10 µM.

Regarding `CC1(C)C(=O)N(Cc2coc3ccccc23)c2cc(C(=O)NCc3c(F)cc(F)cc3F)ccc21` [Example 100, 1-(benzofuran-3-ylmethyl)-3,3-dimethyl-2-oxo-N-(2,4,6-trifluorobenzyl)indoline-6-carboxamide], the EC50 in test [1] is 1 to 10 µM; in test [2], 1 to 10 µM; in test [3] it was 1 to 10 µM; in test [4] (Homo sapiens, THP1-Dual, 20 h), greater than 10 µM; in test [5] (Homo sapiens, THP1-Dual, 20 h), greater than 10 µM.

Turning to `Cc1cc(CN2C(=O)C(C)(C)c3ccc(C(=O)NCc4c(F)cc(F)cc4F)cc32)ccn1` [Example 54, 3,3-dimethyl-1-((2-methylpyridin-4-yl)methyl)-2-oxo-N-(2,4,6-trifluorobenzyl)indoline-6-carboxamide], the EC50 in test [1] was 1 to 10 µM; in test [2], 1 to 10 µM; in test [3], 1 to 10 µM; in test [4] (Homo sapiens, THP1-Dual, 20 h), greater than 10 µM; in test [5] (Homo sapiens, THP1-Dual, 20 h), greater than 10 µM.

Consider `CCn1nc(C)cc1CN1C(=O)C(C)(C)c2ccc(C(=O)NCc3c(F)cc(F)cc3F)cc21` [Example 117, 1-((1-ethyl-3-methyl-1H-pyrazol-5-yl)methyl)-3,3-dimethyl-2-oxo-N-(2,4,6-trifluorobenzyl)indoline-6-carboxamide], for which the EC50 in test [1] was no more than 1 µM; in test [2], 1 to 10 µM; in test [3], 1 to 10 µM; in test [4] (Homo sapiens, THP1-Dual, 20 h), 1 to 10 µM; in test [5] (Homo sapiens, THP1-Dual, 20 h), 1 to 10 µM.

As for `CC1(N=[N+]=[N-])C(=O)N(Cc2c(F)cccc2Cl)c2cc(C(=O)NCc3c(F)cc(F)cc3F)ccc21` (centres unmarked) [Example 153, 3-azido-1(2-chloro-6-fluorobenzyl)-3-methyl-2-oxo-N-(2,4,6-trifluorobenzyl)indoline-6-carboxamide], the EC50 in test [1] is no more than 1 µM; in test [2], 1 to 10 µM; in test [3] it was 1 to 10 µM; in test [4] (Homo sapiens, THP1-Dual, 20 h) it was greater than 10 µM; in test [5] (Homo sapiens, THP1-Dual, 20 h), 1 to 10 µM.

With `CC1(C)C(=O)N(Cc2c(F)cccc2Cl)c2cc(C(=O)NCc3cc4ccccc4o3)ccc21` [Example 36, N-(benzofuran-2-ylmethyl)-1-(2-chloro-6-fluorobenzyl)-3,3-dimethyl-2-oxoindoline-6-carboxamide], the EC50 in test [1] was no more than 1 µM; in test [2], 1 to 10 µM; in test [3] it was 1 to 10 µM; in test [4] (Homo sapiens, THP1-Dual, 20 h), 1 to 10 µM; in test [5] (Homo sapiens, THP1-Dual, 20 h), 1 to 10 µM.

In the case of `CC1(C)C(=O)N(Cc2c(F)cccc2Cl)c2cc(C(=O)NCc3cccc(F)c3)ccc21` [Example 12, 1-(2-chloro-6-fluorobenzyl)-N-(3-fluorobenzyl)-3,3-dimethyl-2-oxoindoline-6-carboxamide], the EC50 is no more than 1 µM in test [1]; 1 to 10 µM in test [2]; 1 to 10 µM in test [3]; greater than 10 µM in test [4] (Homo sapiens, THP1-Dual, 20 h); greater than 10 µM in test [5] (Homo sapiens, THP1-Dual, 20 h).

In the case of `CC1(C#N)C(=O)N(Cc2c(F)cccc2Cl)c2cc(C(=O)NCc3c(F)cc(F)cc3F)ccc21` (centres unmarked) [Example 164, 1-(2-chloro-6-fluorobenzyl)-3-cyano-3-methyl-2-oxo-N-(2,4,6-trifluorobenzyl)indoline-6-carboxamide], the EC50 in test [1] is no more than 1 µM; in test [2], no more than 1 µM; in test [3], 1 to 10 µM; in test [4] (Homo sapiens, THP1-Dual, 20 h), greater than 10 µM; in test [5], greater than 10 µM.

For `CC1(C)C(=O)N(Cc2ccc(F)cc2)c2cc(C(=O)NCc3c(F)cc(F)cc3F)ccc21` [Example 20, 1-(4-fluorobenzyl)-3,3-dimethyl-2-oxo-N-(2,4,6-trifluorobenzyl)indoline-6-carboxamide], the EC50 in test [1] is no more than 1 µM; in test [2] it was 1 to 10 µM; in test [3] it was no more than 1 µM; in test [4] (Homo sapiens, THP1-Dual, 20 h), 1 to 10 µM; in test [5] (Homo sapiens, THP1-Dual, 20 h), 1 to 10 µM.

`CC1(C#N)C(=O)N(Cc2c(F)cccc2Cl)c2cc(C(=O)NCc3c(F)cc(F)cc3F)ccc21` (centres unmarked) [Example 165, 1-(2-chloro-6-fluorobenzyl)-3-cyano-3-methyl-2-oxo-N-(2,4,6-trifluorobenzyl)indoline-6-carboxamide]: the EC50 in test [1] is no more than 1 µM; in test [2], no more than 1 µM; in test [3], no more than 1 µM; in test [4] it was greater than 10 µM; in test [5], 1 to 10 µM.

Turning to `Cc1ccc(CNC(=O)c2ccc3c(c2)N(Cc2ccc(F)cc2)C(=O)C3(C)C)o1` [Example 60, 1-(4-fluorobenzyl)-3,3-dimethyl-N-((5-methylfuran-2-yl)methyl)-2-oxoindoline-6-carboxamide], the EC50 is 1 to 10 µM in test [1]; greater than 10 µM in test [2]; 1 to 10 µM in test [3]; greater than 10 µM in test [4] (Homo sapiens, THP1-Dual, 20 h); greater than 10 µM in test [5] (Homo sapiens, THP1-Dual, 20 h).

On to `CC1(C)C(=O)N(Cc2c(F)cccc2F)c2cc(C(=O)NCc3c(F)cc(F)cc3F)ccc21` [Example 109, 1-(2,6-difluorobenzyl)-3,3-dimethyl-2-oxo-N-(2,4,6-trifluorobenzyl)indoline-6-carboxamide], for which the EC50 in test [1] was no more than 1 µM; in test [2], no more than 1 µM; in test [3] it was no more than 1 µM; in test [4] (Homo sapiens, THP1-Dual, 20 h), 1 to 10 µM; in test [5] (Homo sapiens, THP1-Dual, 20 h), 1 to 10 µM.

Regarding `CC1(C)C(=O)N(Cc2ccccc2C#N)c2cc(C(=O)NCc3c(F)cc(F)cc3F)ccc21` [Example 124, 1-(2-cyanobenzyl)-3,3-dimethyl-2-oxo-N-(2,4,6-trifluorobenzyl)indoline-6-carboxamide], the EC50 was no more than 1 µM in test [1]; 1 to 10 µM in test [2]; 1 to 10 µM in test [3]; greater than 10 µM in test [4] (Homo sapiens, THP1-Dual, 20 h); greater than 10 µM in test [5] (Homo sapiens, THP1-Dual, 20 h).

Turning to `Cc1cccc(CN2C(=O)C(C)(C)c3ccc(C(=O)NCc4c(F)cc(F)cc4F)cc32)c1F` [Example 73, 1-(2-fluoro-3-methylbenzyl)-3,3-dimethyl-2-oxo-N-(2,4,6-trifluorobenzyl)indoline-6-carboxamide], the EC50 in test [1] was no more than 1 µM; in test [2], no more than 1 µM; in test [3], no more than 1 µM; in test [4] (Homo sapiens, THP1-Dual, 20 h), 1 to 10 µM; in test [5] (Homo sapiens, THP1-Dual, 20 h), 1 to 10 µM.

On to `COc1cccc(CN2C(=O)C(C)(C)c3ccc(C(=O)NCc4c(F)cc(F)cc4F)cc32)c1F` [Example 104, 1-(2-fluoro-3-methoxybenzyl)-3,3-dimethyl-2-oxo-N-(2,4,6-trifluorobenzyl)indoline-6-carboxamide], for which the EC50 in test [1] was 1 to 10 µM; in test [2], 1 to 10 µM; in test [3], 1 to 10 µM; in test [4] (Homo sapiens, THP1-Dual, 20 h), greater than 10 µM; in test [5] (Homo sapiens, THP1-Dual, 20 h) it was greater than 10 µM.

In the case of `CCC1(Cl)C(=O)N(Cc2c(F)cccc2Cl)c2cc(C(=O)NCc3c(F)cc(F)cc3F)ccc21` (centres unmarked) [Example 155, 3-chloro-1-(2-chloro-6-fluorobenzyl)-3-ethyl-2-oxo-N-(2,4,6-trifluorobenzyl)indoline-6-carboxamide], the EC50 in test [1] is no more than 1 µM; in test [2] it was greater than 10 µM; in test [3], greater than 10 µM; in test [4] (Homo sapiens, THP1-Dual, 20 h), greater than 10 µM; in test [5] (Homo sapiens, THP1-Dual, 20 h), greater than 10 µM.
